One test concerns tubulin. The conditions noted are these: 20° C.; compared with taxol.
The subject of test [1] is L1210 mouse leukemia carcinoma cells. Description: cytotoxicity / inhibition of cell proliferation in L1210 leukemia cells. The format is cell-based.
Test [2] has as its system A2780 human ovarian carcinoma. Description: cytotoxicity in A2780 human ovarian carcinoma cells. It counts as cell-based.
A further test relates to KB-3-1. Description: killing of drug sensitive (non-MDR) KB-3-1 cells. The conditions noted are these: Homo sapiens. The format is cell-based.
In another test the test system is KB-V1. The experiment in a line: killing of multidrug resistant KB-V1 cells. It counts as cell-based. The conditions noted are these: for IC50: Homo sapiens.

The values below come from patent US5821363A, “Antineoplastic use and pharmaceutical compositions containing them” (priority 1996, dated 1998).

≈ marks a conversion by molar mass, not a printed value. Where two headings read alike, the source gives them in different places.

As to 7-deoxy-7β,8β-methano-taxol, the “induction of tubulin polymerization in vitro” value in the test with tubulin is “able to induce tubulin polymerization in vitro at 20 °C in a manner very similar to taxol”.

As to `CC(=O)O[C@H]1C(=O)[C@@]2(C)[C@H]([C@H](OC(=O)c3ccccc3)[C@]3(O)C[C@H](OC(=O)[C@H](O)[C@@H](NC(=O)c4ccccc4)c4ccccc4)C(C)=C1C3(C)C)[C@]1(OC(C)=O)CO[C@@H]1C[C@@H]2O` [taxol, reference compound], the IC90 in test [1] (L1210, read-out: IC90 (90% growth inhibitory concentration)) came to 18 ng/mL (≈ 21.1 nM). Moreover, the IC50 in test [1] (L1210, read-out: L1210 (IC50 μg/ml)) was 0.017 µg/mL (≈ 19.9 nM); in test [2] (Homo sapiens, A2780, read-out: A2780 (IC50 μg/ml)), 0.002 to 0.003 µg/mL (≈ 2.34 to 3.51 nM); in the test with KB-3-1 (KB 3-1, read-out: KB-3-1 (IC50; nM)) it was 1.3 nM; with KB-V1 (KB-V1, read-out: KB-V1 (IC50; nM)), 15000 nM. In the test with KB-V1 (human, kb-v1 vs kb-3-1 cells), the “Ratio: KBV-1/KB-3-1” value is given as 11,538. In addition, the “average ratio (IC50 KB-V1/IC50 KB-3-1)” value in the test on KB-V1 (human, kb-v1 vs kb-3-1 cells) is 7,570.

With `CC(=O)O[C@@]12CO[C@@H]1C[C@H](O)[C@@]1(C)C(=O)[C@H](O)C3=C(C)[C@@H](OC(=O)[C@H](O)[C@@H](NC(=O)OC(C)(C)C)c4ccccc4)C[C@@](O)([C@@H](OC(=O)c4ccccc4)[C@H]21)C3(C)C` [taxotere, reference compound], the IC50 is 0.004 µg/mL (≈ 4.95 nM) in test [1] (L1210 leukemia, Table I, 50% inhibition of cell proliferation vs untreated control, read-out: L1210 (IC50 μg/ml)); 0.001 to 0.0016 µg/mL (≈ 1.24 to 1.98 nM) in test [2] (A2780 human ovarian carcinoma, Table II, read-out: A2780 (IC50 μg/ml)); 0.25 nM in the test with KB-3-1 (KB-3-1 drug sensitive cells, Table III, read-out: KB-3-1 (IC50; nM)); 1700 nM in the test with KB-V1 (KB-V1 multidrug resistant cells, Table III, read-out: KB-V1 (IC50; nM)). For the same molecule, the “Ratio: KBV-1/KB-3-1” value in the test with KB-V1 (ratio of IC50 KB-V1 to IC50 KB-3-1) is on record as 7,570. Also, the “average ratio (IC50 KB-V1/IC50 KB-3-1)” value in the test with KB-V1 (taxol and taxotere, average) is given as 7,570.
